Test results published in US5965619A, “Method for treating patients having precancerous lesions with substituted indene derivatives” (Cell Pathways Inc., priority 1997, dated 1999).

Legend:
[1] = test system: human colon carcinoma cell line, HT-29; assay: HT-29 tumor cell growth inhibition, Sulforhodamine B (SRB) protein binding assay; format: cell-based; settings: 144 h, six days continuous exposure
Method: These compounds were assayed for their effect on the human colon carcinoma cell line, HT-29 obtained from ATCC, (Rockville, Md.) to ascertain the degree of growth inhibition. Growth inhibition of this cell line is indicative of a benefit on precancerous lesions and neoplasms. The cell line and growth assay employed for these experiments is well characterized, and is used by the United States National Cancer Institute in its screening program for new anti-cancer drugs.
Drug stock solutions were made in 100% DMSO then diluted with RPMI media for cell culture testing. All drug solutions were prepared fresh on the day of testing. The cultured cells were obtained at passage #118 and grown in RPMI media supplemented with 5% fetal calf serum, and 2 mM glutamine, 100 U/ml penicillin, 100 U/ml streptomycin, and 0.25 μg/ml amphotericin. The cultures were maintained in a humidified atmosphere of 95% air and 5% CO2 at 37° C. The cultures were passaged at preconfluent densities using a solution of 0.05% trypsin and 0.53 mM EDTA. All experiments involved HT-29 cells between passages 120 and 140. Cells were plated at the following densities to obtain cultures used for the experiments: 500 cells/well for 96 well flat-bottom microtiter plates, 1×10^6 cells per 25 cm^2 flask.
Tumor cell growth inhibition was assessed using the Sulforhodamine B (SRB) protein binding assay. In this assay, tumor cells were plated in 96-well plates and treated with drug-containing media for six days (continuous exposure). For each plate, 6 wells were designated as no treatment controls, six wells as vehicle (0.1% DMSO) controls, and the remaining wells for drug dilutions with six wells per drug concentration. At the end of the exposure period, the cells were fixed and stained with sulforhodamine B, a protein binding dye. The dye was then solubilized, and the optical density of the resulting solution was determined on a 96-well plate reader. The mean dye intensity of the treated wells was then divided by the mean dye intensity in the control wells (6 wells of each) to determine the effect of the drug on the cells. Dye intensity is proportional to the number of cells or amount of protein per well. The resultant "percent inhibition" value then represents the degree of growth inhibition caused by the drug.
For each experiment, an IC50 value was determined and used for comparative purposes. This value is equivalent to the concentration of drug needed to inhibit tumor cell growth by 50%. IC50 values were obtained graphically by connecting the mean values for each drug concentration tested. Each experiment included at least six wells per drug concentration. Concentration was plotted on a log scale on the X-axis.

[2] = test system: DMBA-Induced Mammary Lesions; assay: Mouse mammary gland organ culture, DMBA-induced mammary lesions; format: cell-based, mouse (female BALB/c); settings: 15 glands per group
Method: The compound of Example No. 17(d) was also tested for its ability to inhibit the incidence of mammary lesions in an organ culture system. This mouse mammary gland organ culture technique has been successfully used by other investigators to study the effects of known cancer-chemopreventativeagents such as retinoids and selenium.
Female BALB/c mice, 28 days old, were treated for nine days with a combination of 1 μg of estradiol and 1 mg of progesterone daily, in order to prime the glands to be responsive to hormones in vitro. The animals were sacrificed and thoracic mammary glands were excised aseptically and incubated for ten days in growth media supplemented with growth-promoting hormones: insulin, prolactin, and hydrocortisone, at 5 μg/ml each and aldosterone at 1 μg/ml. A twenty-four hour treatment of 7,12-dimethylbenz(a)anthracene (DMBA, 2 μg/ml) was carried out between days three and four to induce the formation of mammary lesions. Fully developed glands were deprived of prolactin, hydrocortisone, and aldosterone for 14 days, resulting in the regression of the glands but not the mammary lesions.
In order to evaluate the effects of Compound No. 17(d), it was dissolved in DMSO and added to the culture media supplemented for the duration of the culture period. At the end of the culture period, the glands were fixed in 10% formalin, stained with alum carmine, and mounted on glass slides. The incidence of forming mammary lesions is the ratio of the glands with mammary lesions and glands without lesions. The incidence of mammary lesions in compound 17(d) treated glands was compared with that of the untreated glands.
The extent of the area occupied by the mammary lesions was quantitated by projecting an image of the gland onto a digitation pad. The area covered by the gland was traced on the pad and considered as 100% of the area, The space covered by each of the unregressed structures was also outlined on the digitization pad and quantitated by the computer.

purified COX = assay: Cyclooxygenase (COX) inhibition, purified COX from ram seminal vesicles; format: biochemical; settings: 100 μM dose; arachidonic acid 100 uM, 2.0 min at 37° C.
Method: Compounds of this invention, as well as several others (sce Table 2 below), were evaluated to determine whether they inhibited the production of prostaglandin according to the procedure below. COX is involved in the formation of prostaglandins and thromboxane by the oxidative metabolism of arachidonic acid. […] Briefly, purified COX was incubated with arachidonic acid (100 uM) for 2.0 min at 37° C. in the presence or absence of test compounds. The assay was terminated by the addition of TCA, and COX activity was determined by absorbance at 530 nm.

prostaglandin synthesis = settings: cited from earlier work
precancerous lesions = settings: cited from earlier work
colonic polyps = settings: cited from earlier work

SMILES: COc1ccc(/C=C2/C(C)=C(CC(=O)O)c3cc(F)ccc32)cc1 [16(e), (Z)-5-fluoro-2-methyl-1-(p-methoxy-benzylidene)-3-indenylacetic acid]
- IC50 [1]: 29 µM

SMILES: CC1=C(CC(=O)O)c2cc(F)ccc2/C1=C\c1ccccc1 [17(a), (Z)-5-fluoro-2-methyl-1-benzylidene-3-indenylacetic acid]
- IC50 [1]: 40 µM

SMILES: CC1=C(CC(=O)O)c2cc(F)ccc2/C1=C\c1ccc(Cl)cc1 [17(b), (Z)-5-fluoro-2-methyl-1-(4-chlorobenzylidene)-3-indenylacetic acid]
- IC50 [1]: 58 µM

SMILES: COc1cc(OC)c(/C=C2/C(C)=C(CC(=O)O)c3cc(F)ccc32)c(OC)c1 [17(e), (Z)-5-fluoro-2-methyl-1-(2,4,6-trimethoxybenzylidene)-3-indenylacetic acid]
- IC50 [1]: 61 µM

SMILES: COc1ccc(/C=C2/C(C)=C(CC(=O)O)c3cc(F)ccc32)c(OC)c1OC [17(f), (Z)-5-fluoro-2-methyl-1-(2,3,4-trimethoxybenzylidene)-3-indenylacetic acid]
- IC50 [1]: 40 µM

SMILES: COc1cc(OC)c(OC)cc1/C=C1/C(C)=C(CC(=O)O)c2cc(F)ccc21 [17(g), (Z)-5-fluoro-2-methyl-1-(2,4,5-trimethoxybenzylidene)-3-indenylacetic acid]
- IC50 [1]: 40 µM

SMILES: CC1=C(CC(=O)O)c2cc(F)ccc2/C1=C\c1c(Cl)cccc1Cl [17(h), (Z)-5-fluoro-2-methyl-1-(2,6-dichlorobenzylidene)-3-indenylacetic acid]
- IC50 [1]: 31 µM

SMILES: COc1cc(/C=C2/C(C)=C(CC(=O)O)c3cc(F)ccc32)cc(OC)c1OC [Example 17(d), (Z)-5-fluoro-2-methyl-1-(3,4,5-trimethoxybenzylidene)-3-indenylacetic acid]
- Glands with Lesions ([2]; 10 μm): 5
- Percent Incidence ([2]; 10 μm): 33.33%
- Glands with Lesions ([2]; 100 μm): 0
- Percent Incidence ([2]; 100 μm): 0.00%
- % Inhibition (purified COX): No inhibition
- IC50 [1]: 39 µM

SMILES: CSc1ccc(/C=C2/C(C)=C(CC(=O)O)c3cc(F)ccc32)cc1 [Sulindac Sulfide, reference compound]
- activity as inhibitor of prostaglandin synthesis (prostaglandin synthesis): active moiety as a prostaglandin synthesis inhibitor
- % Inhibition (purified COX): 86%

SMILES: CC1=C(CC(=O)O)c2cc(F)ccc2/C1=C\c1ccc(S(C)(=O)=O)cc1 [sulfone]
- activity as inhibitor of prostaglandin synthesis (prostaglandin synthesis): inactive as an inhibitor of prostaglandin synthesis
- activity as inhibitor of precancerous lesions (precancerous lesions): active as an inhibitor of precancerous lesions

SMILES: CC1=C(CC(=O)O)c2cc(F)ccc2/C1=C\c1ccc([S+](C)[O-])cc1 (stereo not drawn) [sulindac]
- effect on polyps when patients take the drug (colonic polyps): Polyps virtually disappear
